According to US9738902B2, “Modified PYR/PYL receptors activated by ligands” (priority 2013, dated 2017):

Assays:
Assay in all cases: Y2H Pocket Library Screen (HAB1, X-gal)
Format in all cases: cell-based
[1] = molecular target: T1, PYR1 K59R V83L (Arabidopsis thaliana, UniProt O49686, K59R/V83L)
T1 construct: expressed in transfected cells; host or cells: S. cerevisiae Y190 yeast two-hybrid reporter strain
Summary of the method: (§1)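 Mutant PYR1 variants are screened in yeast two-hybrid against HAB1, with 100 μM compound in –Leu/–Trp dextrose agar; responsiveness is judged by X-gal staining after 2 days at 30° C.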

[2] = molecular target: T2, PYR1 K59R V164M (Arabidopsis thaliana, UniProt O49686, K59R/V164M)
T2 construct: expressed in transfected cells; host or cells: S. cerevisiae Y190
Summary of the method: as §1

[3] = molecular target: T3, PYR1 K59R M158A (Arabidopsis thaliana, UniProt O49686, K59R/M158A)
T3 construct: expressed in transfected cells; host or cells: S. cerevisiae Y190 two-hybrid reporter strain
Summary of the method: as §1

[4] = molecular target: T4, PYR1 K59R N167D (Arabidopsis thaliana, UniProt O49686, K59R/N167D)
T4 construct: expressed in transfected cells; host or cells: S. cerevisiae Y190 two-hybrid reporter strain
Summary of the method: as §1

[5] = molecular target: T5, PYR1 K59R E141L (Arabidopsis thaliana, UniProt O49686, E141L/K59R)
T5 construct: expressed in transfected cells; host or cells: S. cerevisiae Y190 two-hybrid reporter strain
Summary of the method: as §1

[6] = molecular target: T6, PYR1 K59R N167T (Arabidopsis thaliana, UniProt O49686, K59R/N167T)
T6 construct: expressed in transfected cells; host or cells: S. cerevisiae Y190 two-hybrid reporter strain
Summary of the method: as §1

[7] = molecular target: T7, PYR1 K59R N167G (Arabidopsis thaliana, UniProt O49686, K59R/N167G)
T7 construct: expressed in transfected cells; host or cells: S. cerevisiae Y190 two-hybrid reporter strain
Summary of the method: as §1

[8] = molecular target: T8, PYR1 K59R V164L (Arabidopsis thaliana, UniProt O49686, K59R/V164L)
T8 construct: expressed in transfected cells; host or cells: S. cerevisiae Y190
Summary of the method: as §1

[9] = molecular target: T9, PYR1 K59R V164A (Arabidopsis thaliana, UniProt O49686, K59R/V164A)
T9 construct: expressed in transfected cells; host or cells: S. cerevisiae Y190
Summary of the method: as §1

[10] = molecular target: T10, PYR1 K59R H115N (Arabidopsis thaliana, UniProt O49686, H115N/K59R)
T10 construct: expressed in transfected cells; host or cells: S. cerevisiae Y190 two-hybrid reporter strain
Summary of the method: as §1

[11] = molecular target: T11, PYR1 K59R E141Y (Arabidopsis thaliana, UniProt O49686, E141Y/K59R)
T11 construct: expressed in transfected cells; host or cells: S. cerevisiae Y190 two-hybrid reporter strain
Summary of the method: as §1

[12] = molecular target: T12, PYR1 K59R T162K (Arabidopsis thaliana, UniProt O49686, K59R/T162K)
T12 construct: expressed in transfected cells; host or cells: S. cerevisiae Y190
Summary of the method: as §1

[13] = molecular target: T13, PYR1 K59R N167Q (Arabidopsis thaliana, UniProt O49686, K59R/N167Q)
T13 construct: expressed in transfected cells; host or cells: S. cerevisiae Y190 two-hybrid reporter strain
Summary of the method: as §1

[14] = molecular target: T14, PYR1 K59R V164K (Arabidopsis thaliana, UniProt O49686, K59R/V164K)
T14 construct: expressed in transfected cells; host or cells: S. cerevisiae Y190
Summary of the method: as §1

[15] = molecular target: T15, PYR1 K59R M158C (Arabidopsis thaliana, UniProt O49686, K59R/M158C)
T15 construct: expressed in transfected cells; host or cells: S. cerevisiae Y190 two-hybrid reporter strain
Summary of the method: as §1

[16] = molecular target: T16, PYR1 K59R N167C (Arabidopsis thaliana, UniProt O49686, K59R/N167C)
T16 construct: expressed in transfected cells; host or cells: S. cerevisiae Y190 two-hybrid reporter strain
Summary of the method: as §1

[17] = molecular target: T17, PYR1 K59R V164C (Arabidopsis thaliana, UniProt O49686, K59R/V164C)
T17 construct: expressed in transfected cells; host or cells: S. cerevisiae Y190
Summary of the method: as §1

[18] = molecular target: T18, PYR1 K59R V164G (Arabidopsis thaliana, UniProt O49686, K59R/V164G)
T18 construct: expressed in transfected cells; host or cells: S. cerevisiae Y190
Summary of the method: as §1

[19] = molecular target: T19, PYR1 K59R V164Y (Arabidopsis thaliana, UniProt O49686, K59R/V164Y)
T19 construct: expressed in transfected cells; host or cells: S. cerevisiae Y190 two-hybrid reporter strain
Summary of the method: as §1

[20] = molecular target: T20, PYR1 K59R V164F (Arabidopsis thaliana, UniProt O49686, K59R/V164F)
T20 construct: expressed in transfected cells; host or cells: S. cerevisiae Y190
Summary of the method: as §1

[21] = molecular target: T21, PYR1 K59R V164T (Arabidopsis thaliana, UniProt O49686, K59R/V164T)
T21 construct: expressed in transfected cells; host or cells: S. cerevisiae Y190 two-hybrid reporter strain
Summary of the method: as §1

[22] = molecular target: T22, PYR1 K59R A160N (Arabidopsis thaliana, UniProt O49686, A160N/K59R)
T22 construct: expressed in transfected cells; host or cells: S. cerevisiae Y190
Summary of the method: as §1

[23] = molecular target: T23, PYR1 K59R F108A (Arabidopsis thaliana, UniProt O49686, F108A/K59R)
T23 construct: expressed in transfected cells; host or cells: S. cerevisiae Y190 yeast two-hybrid reporter strain
Summary of the method: as §1

[24] = molecular target: T24, PYR1 K59R F159C (Arabidopsis thaliana, UniProt O49686, F159C/K59R)
T24 construct: expressed in transfected cells; host or cells: S. cerevisiae Y190 two-hybrid reporter strain
Summary of the method: as §1

[25] = molecular target: T25, PYR1 K59R F108C (Arabidopsis thaliana, UniProt O49686, F108C/K59R)
T25 construct: expressed in transfected cells; host or cells: S. cerevisiae Y190 yeast two-hybrid reporter strain
Summary of the method: as §1

[26] = molecular target: T26, PYR1 K59R A89W (Arabidopsis thaliana, UniProt O49686, A89W/K59R)
T26 construct: expressed in transfected cells; host or cells: S. cerevisiae Y190 yeast two-hybrid reporter strain
Summary of the method: as §1

[27] = molecular target: T27, PYR1 K59R F108T (Arabidopsis thaliana, UniProt O49686, F108T/K59R)
T27 construct: expressed in transfected cells; host or cells: S. cerevisiae Y190 yeast two-hybrid reporter strain
Summary of the method: as §1

[28] = molecular target: T28, PYR1 K59R F108I (Arabidopsis thaliana, UniProt O49686, F108I/K59R)
T28 construct: expressed in transfected cells; host or cells: S. cerevisiae Y190 yeast two-hybrid reporter strain
Summary of the method: as §1

Measured: Threshold

T18 sequence (O49686 whole entry K59R/V164G): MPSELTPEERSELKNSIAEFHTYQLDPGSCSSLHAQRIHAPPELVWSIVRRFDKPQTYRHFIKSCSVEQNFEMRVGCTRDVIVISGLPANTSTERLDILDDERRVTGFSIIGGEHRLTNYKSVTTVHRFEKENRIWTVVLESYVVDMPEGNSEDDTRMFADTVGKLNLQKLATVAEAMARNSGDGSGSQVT
T18 sequence (Q9CAJ0 23-511 partner): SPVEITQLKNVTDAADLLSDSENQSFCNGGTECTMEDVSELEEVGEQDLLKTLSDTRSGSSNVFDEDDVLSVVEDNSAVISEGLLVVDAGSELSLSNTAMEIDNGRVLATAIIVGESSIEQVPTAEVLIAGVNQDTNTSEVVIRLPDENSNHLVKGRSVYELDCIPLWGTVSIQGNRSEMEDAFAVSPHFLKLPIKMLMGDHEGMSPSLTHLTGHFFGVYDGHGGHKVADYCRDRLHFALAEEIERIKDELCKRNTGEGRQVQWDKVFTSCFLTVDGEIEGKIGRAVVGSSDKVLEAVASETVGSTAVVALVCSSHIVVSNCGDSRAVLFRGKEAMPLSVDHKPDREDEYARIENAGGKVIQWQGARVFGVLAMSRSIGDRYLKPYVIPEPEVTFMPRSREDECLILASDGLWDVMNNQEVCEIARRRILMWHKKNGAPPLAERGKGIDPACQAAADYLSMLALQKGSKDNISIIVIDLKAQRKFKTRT
T4 sequence (O49686 whole entry K59R/N167D): as the sequence (O49686 whole entry K59R/V164G) above, with G164V, N167D counted along it
T4 sequence (Q9CAJ0 23-511 partner): as the sequence (Q9CAJ0 23-511 partner) above
T13 sequence (O49686 whole entry K59R/N167Q): as the sequence (O49686 whole entry K59R/V164G) above, with G164V, N167Q counted along it
T13 sequence (Q9CAJ0 23-511, further chain): as the sequence (Q9CAJ0 23-511 partner) above
T12 sequence (O49686 whole entry K59R/T162K): as the sequence (O49686 whole entry K59R/V164G) above, with T162K, G164V counted along it
T12 sequence (Q9CAJ0 23-511, further chain): as the sequence (Q9CAJ0 23-511 partner) above
T7 sequence (O49686 whole entry K59R/N167G): as the sequence (O49686 whole entry K59R/V164G) above, with G164V, N167G counted along it
T7 sequence (Q9CAJ0 23-511 partner): as the sequence (Q9CAJ0 23-511 partner) above
T26 sequence (O49686 whole entry K59R/A89W): as the sequence (O49686 whole entry K59R/V164G) above, with A89W, G164V counted along it
T26 sequence (Q9CAJ0 23-511, further chain): as the sequence (Q9CAJ0 23-511 partner) above
T20 sequence (O49686 whole entry K59R/V164F): as the sequence (O49686 whole entry K59R/V164G) above, with G164F counted along it
T20 sequence (Q9CAJ0 23-511 partner): as the sequence (Q9CAJ0 23-511 partner) above

N#Cc1c(Cl)cccc1Cl [Dichlobenil, dichlobenil]
not listed: [23] | [24] | [25] | [26] | [27] | [28]
100 µM: all other assays above

C#CCOc1ccc(CCNC(=O)C(OCC#C)c2ccc(Cl)cc2)cc1OC (stereo not shown) [Mandipropamid, mandipropamid]
100 µM: [23] | [24] | [25] | [26] | [27] | [28]
